Source: the supplement of paper PMC10883282

How the values were obtained:
Assay in all cases: standardised AUC of viability dose-response curve (72 h) (fraction (0-1)); higher = less growth inhibition (more resistant)
[1] = tested on: A204
Summary of the method: (§1)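 Viability of sarcoma cell lines was read with ATPLite after 72 h of triplicate treatment in 384-well plates with 2.5 µl of compound from a compound-plate series of 10 mM to 0.0002 mM. Viability was scaled 1 (full) to 0 (none) and fitted with a four-parameter log-logistic model for each drug and cell line. The reported standardised area under the dose-response curve in log-dose space comes from a modified drexplorer computeAUC, where 1 is no response and 0 is full response.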

[2] = tested on: G401
Summary of the method: as §1

[3] = tested on: HS729
Summary of the method: as §1

[4] = tested on: HT1080
Summary of the method: as §1

[5] = tested on: KHOS-240S
Summary of the method: as §1

[6] = tested on: KHOS-NP
Summary of the method: as §1

[7] = tested on: MES-SA
Summary of the method: as §1

[8] = tested on: RD-ES
Summary of the method: as §1

[9] = tested on: RD
Summary of the method: as §1

[10] = tested on: SK-ES-1
Summary of the method: as §1

[11] = tested on: SK-LMS-1
Summary of the method: as §1

[12] = tested on: SW1353
Summary of the method: as §1

[13] = tested on: SW684
Summary of the method: as §1

[14] = tested on: SW872
Summary of the method: as §1

[15] = tested on: SW982
Summary of the method: as §1

[16] = tested on: SYO-1
Summary of the method: as §1

[17] = tested on: VA-ES-BJ
Summary of the method: as §1

SMILES	standardised AUC [1]	standardised AUC [2]	standardised AUC [3]	standardised AUC [4]	standardised AUC [5]	standardised AUC [6]	standardised AUC [7]	standardised AUC [8]	standardised AUC [9]	standardised AUC [10]	standardised AUC [11]	standardised AUC [12]	standardised AUC [13]	standardised AUC [14]	standardised AUC [15]	standardised AUC [16]	standardised AUC [17]
CNC(=O)c1cc(Oc2ccc(NC(=O)Nc3ccc(Cl)c(C(F)(F)F)c3)c(F)c2)ccn1 [REGORAFENIB]	0.768	0.874	0.873	0.96	0.936	0.856	0.934	0.974	0.91	0.943	0.904	0.958	0.992	0.93	0.96	0.816	0.977
CN[C@@H]1C[C@H]2O[C@@](C)([C@@H]1OC)n1c3ccccc3c3c4c(c5c6ccccc6n2c5c31)C(=O)NC4 [STAUROSPORINE]	0.309	0.331	0.409	0.313	0.284	0.369	0.435	0.435	0.343	0.398	0.376	0.294	0.427	0.337	0.25	0.288	0.346
CC[C@H](Nc1ncnc2[nH]cnc12)c1nc2cccc(F)c2c(=O)n1-c1ccccc1 [IDELALISIB]	0.939	0.931	0.905	0.99	0.968	0.978	0.957	0.968	0.982	0.963	0.919	0.897	0.761	0.937	0.971	0.949	0.934
CCCS(=O)(=O)Nc1ccc(F)c(C(=O)c2c[nH]c3ncc(-c4ccc(Cl)cc4)cc23)c1F [VEMURAFENIB]	0.977	0.992	0.978	0.983	0.979	0.983	0.956	0.989	0.978	0.959	0.93	0.946	0.97	0.802	0.949	0.978	0.983
CN1CCC(COc2cnc(-c3cccc(Cn4nc(-c5cccc(C#N)c5)ccc4=O)c3)nc2)CC1 [TEPOTINIB]	0.985	0.978	0.928	0.972	0.963	0.954	0.98	0.979	0.998	0.97	0.732	0.987	0.983	0.972	0.985	0.945	0.898
CC1(C)CNc2cc(NC(=O)c3cccnc3NCc3ccncc3)ccc21 [MOTESANIB]	0.756	0.957	0.944	0.981	0.97	0.975	0.995	0.994	1	0.991	0.983	0.975	0.95	0.978	0.997	0.866	1
CNC(=O)c1ccc(-c2cnc3ncc(Cc4ccc5ncccc5c4)n3n2)cc1F [CAPMATINIB]	0.971	0.973	0.989	0.976	0.986	0.998	0.982	1	0.995	1	0.68	1	0.958	0.989	0.985	1	0.873
CO[C@H]1C[C@@H]2CC[C@@H](C)[C@@](O)(O2)C(=O)C(=O)N2CCCC[C@H]2C(=O)O[C@H]([C@H](C)C[C@@H]2CC[C@@H](OP(C)(C)=O)[C@H](OC)C2)CC(=O)[C@H](C)/C=C(\C)[C@@H](O)[C@@H](OC)C(=O)[C@H](C)C[C@H](C)/C=C/C=C/C=C/1C [RIDAFOROLIMUS]	0.643	0.832	0.937	0.925	0.867	0.97	0.542	0.764	0.748	0.682	0.645	0.796	0.798	0.686	0.729	0.874	0.587
Cc1nc(NC(=O)N2CCC[C@H]2C(N)=O)sc1-c1ccnc(C(C)(C)C(F)(F)F)c1 [ALPELISIB]	0.848	0.845	0.78	0.963	0.895	0.964	0.818	0.793	0.86	0.799	0.867	0.909	0.887	0.819	0.935	0.814	0.852
CC(C)N1CCN(Cc2cnc(-c3cc(-c4cccc5[nH]ccc45)cc4[nH]ncc34)o2)CC1 [NEMIRALISIB]	0.908	0.947	0.906	0.996	0.944	0.998	0.95	0.95	0.924	0.935	0.944	0.917	0.726	0.919	0.916	0.916	0.952
Cn1cc(-c2cc3c(N4CCN(c5ncc([C@@](C)(N)c6ccc(F)cc6)cn5)CC4)ncnn3c2)cn1 [AVAPRITINIB]	0.727	0.913	0.941	0.971	0.927	0.917	0.937	0.956	0.978	0.953	0.954	0.927	0.977	0.946	0.948	0.745	0.972
C[C@@H]1CCN(C(=O)CC#N)C[C@@H]1N(C)c1ncnc2[nH]ccc12 [TOFACITINIB]	0.972	0.994	0.876	0.982	0.976	0.982	0.989	1	1	0.989	0.978	0.942	0.967	0.932	0.993	0.925	0.958
O=C(Nc1cnn2ccc(N3CCC[C@@H]3c3cc(F)ccc3F)nc12)N1CC[C@H](O)C1 [LAROTRECTINIB]	0.992	0.98	0.886	0.996	0.988	0.969	0.982	0.994	0.995	0.982	0.961	0.936	0.985	0.953	0.996	0.92	0.969
C=CC(=O)Nc1cccc(Oc2nc(Nc3ccc(N4CCN(C)CC4)cc3)nc3ccsc23)c1 [OLMUTINIB]	0.98	0.964	0.931	0.951	0.954	0.993	0.945	0.982	0.951	0.936	0.927	0.918	0.899	0.964	0.907	0.923	0.939
COc1cc2c(Oc3ccc4[nH]c(C)cc4c3F)ncnc2cc1OCCCN1CCCC1 [CEDIRANIB]	0.622	0.797	0.929	0.996	0.939	0.98	0.91	0.987	0.966	0.917	0.966	0.922	0.995	0.986	0.959	0.743	1
C[C@]1(O)C[C@@H](c2nc(-c3ccc4ccc(-c5ccccc5)nc4c3)c3c(N)nccn32)C1 [LINSITINIB]	0.922	0.817	0.776	0.954	0.915	0.973	0.952	0.73	0.836	0.708	0.973	0.979	0.965	0.936	0.9	0.876	0.936
COc1cc2/c(=N/c3ccc(Br)cc3F)nc[nH]c2cc1OCC1CCN(C)CC1 [VANDETANIB]	0.843	0.925	0.921	0.968	0.879	0.961	0.912	0.911	0.852	0.853	0.894	0.906	0.954	0.886	0.836	0.757	0.955
Cc1nc(-c2cn3c(n2)-c2ccc(-c4cnn(C(C)(C)C(N)=O)c4)cc2OCC3)n(C(C)C)n1 [TASELISIB]	0.675	0.744	0.77	0.989	0.843	0.975	0.664	0.675	0.727	0.68	0.771	0.855	0.702	0.76	0.826	0.84	0.727
Cc1ccc(F)c(NC(=O)Nc2ccc(-c3cccc4[nH]nc(N)c34)cc2)c1 [LINIFANIB]	0.74	0.948	0.884	0.994	0.983	0.955	0.973	0.994	1	0.964	1	0.993	0.996	0.972	1	0.879	1
C=CC(=O)N1CCC([C@@H]2CCNc3c(C(N)=O)c(-c4ccc(Oc5ccccc5)cc4)nn32)CC1 [ZANUBRUTINIB]	0.957	0.977	0.964	0.987	0.976	1	0.981	0.974	0.966	0.977	1	0.934	0.97	0.941	0.941	0.974	0.973
Cc1ccc(NC(=O)c2ccc(CN3CCN(C)CC3)cc2)cc1Nc1nc(-c2cccnc2)cs1 [MASITINIB]	0.702	0.848	0.884	0.902	0.853	0.89	0.869	0.871	0.902	0.881	0.907	0.857	0.873	0.874	0.876	0.749	0.897
CC(C)(C)c1cc(NC(=O)Nc2ccc(-c3cn4c(n3)sc3cc(OCCN5CCOCC5)ccc34)cc2)no1 [QUIZARTINIB]	0.745	0.958	0.939	0.964	0.954	0.964	0.93	0.989	0.977	0.924	0.94	0.978	0.966	0.986	0.992	0.879	0.976
CN1CCN(c2ccc3nc(-c4c(N)c5c(F)cccc5[nH]c4=O)[nH]c3c2)CC1 [DOVITINIB]	0.748	0.833	0.821	0.906	0.81	0.917	0.81	0.82	0.904	0.749	0.904	0.86	0.902	0.823	0.792	0.717	0.865
Cc1cc(C)c(/C=C2\C(=O)Nc3ccccc32)[nH]1 [SEMAXANIB]	0.888	0.983	0.938	0.983	0.939	0.98	0.976	0.968	0.993	0.978	0.954	0.979	0.939	0.993	0.936	0.857	0.947
